“Also recorded” adds a separate entry of the source.
Legend:
[1] = system: MCF7; assay: 5-AdC treatment of MORT-negative breast tumor line MCF7; format: cell-based, human; settings: 1 μM 5-AdC for 96 h
Method: (§1) Finite and immortalized HMEC were generated and grown as previously described^1, 2, 32. […] […]. Retroviral transduction was performed as described^1, 2. Breast tumor lines MDA-MB231, MDA-MB453, and MCF7 were grown as previously described^33, 34.
(§2) Cells were treated with 1 μM 5-aza-2′-deoxycytidine (Sigma) for 96 h, as previously described^33.
(§3) DNA methylation analysis by MassARRAY. DNA methylation analysis by Sequenom MassARRAY (Sequenom) was performed as described^40. Primer sequences are provided in FIG. 18 and are SEQ ID NOs: 3, 4, 5, and 6. Oligonucleotides used for MassARRAY analysis were ordered from Integrated DNA Technologies. Two MassARRAY amplicons covered 800 bp region including the first MORT exon and about 500 bp upstream MORT transcription start (FIG. 4C). The mean DNA methylation of all 26 informative CpG units within MassARRAY amplicons was used for data presentation and statistical analysis.
(§4) The reverse transcription and real-time PCR was performed as previously described in Oshiro M M, Watts G S, Wozniak R J, Junk D J, Munoz-Rodriguez J L, Domann F E, Futscher B W. Mutant p53 and aberrant cytosine methylation cooperate to silence gene expression. Oncogene 2003; 22:3624-34 (reference 1 herein), and Vrba L, Junk D J, Novak P, Futscher B W. p53 induces distinct epigenetic states at its direct target promoters. […]

[2] = system: 184Dp16sMY HMEC; assay: 5-AdC treatment of immortalized MORT negative HMEC line 184Dp16sMY; format: cell-based, human; settings: 96 h treatment, three concentrations of 5-AdC (FIG. 14)
Method: Finite and immortalized HMEC were generated and grown as previously described^1, 2, 32. […]. Retroviral transduction was performed as described^1, 2. Breast tumor lines MDA-MB231, MDA-MB453, and MCF7 were grown as previously described^33, 34. […]
The reverse transcription and real-time PCR was performed as previously described in Oshiro M M, Watts G S, Wozniak R J, Junk D J, Munoz-Rodriguez J L, Domann F E, Futscher B W. Mutant p53 and aberrant cytosine methylation cooperate to silence gene expression. Oncogene 2003; 22:3624-34 (reference 1 herein), and Vrba L, Junk D J, Novak P, Futscher B W. p53 induces distinct epigenetic states at its direct target promoters. BMC Genomics 2008; 9:486 (reference 41 herein), both incorporated herein by reference. Primers were designed for MORT, GAPDH, MYC and XIST and used with the Human Universal Probe Library Set (Roche Diagnostics). The cycle threshold (Ct) MORT values were normalized between the samples using GAPDH Ct values. The data were then converted into a value that is in log 2 scale, but increases with the expression level using formula 40-Ct. Since 40 was the total number of PCR cycles it was the lowest detectable expression level and therefore it was considered the background and set as 0 to display the data in the plots. […]

[3] = system: MDA-MB453; assay: 5-AdC treatment of MORT-negative breast tumor line MDA-MB453; format: cell-based, human; settings: 1 μM 5-AdC for 96 h
Method: as §1, §2, §3, §4

[4] = system: MDA-MB231; assay: 5-AdC treatment of MORT-negative breast tumor line MDA-MB231; format: cell-based, human; settings: 1 μM 5-AdC for 96 h
Method: as §1, §2, §3, §4

[5] = MORT transcript half-life using actinomycin D treatment; format: cell-based; settings: actinomycin D 1 μg/ml; c-MYC and GAPDH as reference genes
Method: FIG. 7 is a graph showing determination of MORT transcript half-life using actinomycin D (1 μg/ml) treatment. c-MYC was used as a short half-life reference gene and GAPDH was used as a long half-life reference gene. (Yang et al. 2003). […] The error bars show the SEM of 3 independent experiments.
The reverse transcription and real-time PCR was performed as previously described in Oshiro M M, Watts G S, Wozniak R J, Junk D J, Munoz-Rodriguez J L, Domann F E, Futscher B W. Mutant p53 and aberrant cytosine methylation cooperate to silence gene expression. Oncogene 2003; 22:3624-34 (reference 1 herein), and Vrba L, Junk D J, Novak P, Futscher B W. p53 induces distinct epigenetic states at its direct target promoters. BMC Genomics 2008; 9:486 (reference 41 herein), both incorporated herein by reference. Primers were designed for MORT, GAPDH, MYC and XIST and used with the Human Universal Probe Library Set (Roche Diagnostics). The cycle threshold (Ct) MORT values were normalized between the samples using GAPDH Ct values. The data were then converted into a value that is in log 2 scale, but increases with the expression level using formula 40-Ct. Since 40 was the total number of PCR cycles it was the lowest detectable expression level and therefore it was considered the background and set as 0 to display the data in the plots.

[6] = system: Immortal, MORT(−) 184Dp16sMY HMEC; assay: Reversal of immortalization: lentiviral restoration of MORT expression in immortal HMEC; format: cell-based, human; settings: qRT/PCR during MORT-mediated senescence
Method: Clontech's Tet-On® 3G system was used to construct lentiviral vectors that express 1) the MORT lncRNA sequence (MORT-Exact)(SEQ ID NO:8) and 2) an aberrant MORT lncRNA to which 60 nucleotides were added at the 5′ end of MORT that was predicted to disrupt RNA secondary structure rendering MORT either hypomorphic or completely nonfunctional (MORT-null). […] Immortal, MORT(−) 184Dp16sMY HMEC were either untreated or transduced with a lentivirus that expressed MORT-Exact, MORT-Null, or eGFP. Cells transduced with MORT-Exact cease growth and take on senescent phenotypes (FIG. 19A-19B).

Nc1ncn([C@H]2C[C@H](O)[C@@H](CO)O2)c(=O)n1 [5-AdC, 5-aza-2′-deoxycytidine]
level of DNA methylation of the MORT promoter ([1]; Sequenom MassARRAY): significant decrease | MORT expression (transcript level) ([1]; real-time PCR): reactivation of MORT expression | MORT transcription (transcript level) [2]: reactivation of MORT transcription; also recorded: increased MORT level | level of DNA methylation of the MORT promoter ([3]; Sequenom MassARRAY): significant decrease | MORT expression (transcript level) ([3]; real-time PCR): reactivation of MORT expression | level of DNA methylation of the MORT promoter ([4]; Sequenom MassARRAY): significant decrease | MORT expression (transcript level) ([4]; real-time PCR): reactivation of MORT expression

MORT: long non-coding RNA (lincRNA), 1.53 kb, ribonucleotide sequence SEQ ID NO:7
MORT transcript half-life [5]: ~15 h | induced overexpression of p16 or p14 [6]: not due to induced overexpression of p16 or p14 | induction of p53 and p53 target genes MDM2, p21, PIG3, MASPIN [6]: neither p53 nor well-defined p53 target genes, MDM2, p21, PIG3, and MASPIN were induced
